Data on 38 compounds can be found in patent publication US20260297109A1, “COMPOUNDS AS SUMO ACTIVATING ENZYME INHIBITORS” (WIGEN BIOMEDICINE TECHNOLOGY (SHANGHAI) CO., LTD., priority 2022, published 2026).

A value given as a limit tells only on which side of the number the result lay.

As a reminder, the IC50 is the concentration that inhibits the measured activity by half. A lower IC50 goes with greater potency.

In one test the target is T1, SAE (Homo sapiens, UniProt Q9UBT2).
T1 construct: endogenous in cells; host or cells: HCT116
T1 sequence (Q9UBT2 1-640): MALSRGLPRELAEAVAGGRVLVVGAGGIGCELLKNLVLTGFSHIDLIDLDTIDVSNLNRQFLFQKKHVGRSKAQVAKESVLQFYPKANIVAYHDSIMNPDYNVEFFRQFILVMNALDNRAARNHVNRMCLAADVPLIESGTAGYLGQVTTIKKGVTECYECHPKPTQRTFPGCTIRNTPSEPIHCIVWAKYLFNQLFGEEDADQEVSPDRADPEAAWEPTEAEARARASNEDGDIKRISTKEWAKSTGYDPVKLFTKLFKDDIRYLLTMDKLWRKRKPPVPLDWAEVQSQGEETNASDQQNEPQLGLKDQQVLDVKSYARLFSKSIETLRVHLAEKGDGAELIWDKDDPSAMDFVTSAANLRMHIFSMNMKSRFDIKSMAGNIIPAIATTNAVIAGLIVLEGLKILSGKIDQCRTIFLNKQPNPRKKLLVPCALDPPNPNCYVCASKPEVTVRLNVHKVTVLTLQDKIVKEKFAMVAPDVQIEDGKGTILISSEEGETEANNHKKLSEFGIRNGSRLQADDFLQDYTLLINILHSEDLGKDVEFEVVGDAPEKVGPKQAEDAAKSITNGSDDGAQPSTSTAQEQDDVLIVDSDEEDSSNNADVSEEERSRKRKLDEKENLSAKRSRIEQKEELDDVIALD
T1 sequence (Q9UBE0 1-346): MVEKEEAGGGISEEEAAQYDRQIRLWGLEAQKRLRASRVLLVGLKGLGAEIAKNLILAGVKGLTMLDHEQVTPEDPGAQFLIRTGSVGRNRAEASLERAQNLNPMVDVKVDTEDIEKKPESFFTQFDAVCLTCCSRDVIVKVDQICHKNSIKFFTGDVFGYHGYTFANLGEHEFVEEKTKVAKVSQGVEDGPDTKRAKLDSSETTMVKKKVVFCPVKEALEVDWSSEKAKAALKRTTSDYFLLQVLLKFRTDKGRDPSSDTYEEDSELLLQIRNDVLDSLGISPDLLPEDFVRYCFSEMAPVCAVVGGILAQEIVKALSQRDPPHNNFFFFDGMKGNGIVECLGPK
The test is described as follows: SUMO IF: in vitro inhibitory activity assay against SAE in HCT116 cells (SUMO-2/3 immunofluorescence). Type of test: cell-based. To be noted: class symbols, 6 h at 37° C. As for the experimental part: Biological Example 1. In Vitro Inhibitory Activity Assay of Compounds of the Present Disclosure Against SAE
HCT116 cells were seeded into a 96-well black transparent bottom plate at about 20000/well with 90 μL per well. The cells were incubated at 37° C. overnight for 24 h. The test compounds were 10-fold diluted to give a final concentration, and 10 μL of the diluted compounds was added to each well of the cell culture plate. The mixture was incubated at 37° C. for 6 h. The cells were then washed gently, the culture medium was discarded, and the cells were washed once with 200 μL of 0.1% PBST. 50 μL of 4% PFA was added to each well, and the cells were immobilized at room temperature for 20 min, and then washed with PBS 2-3 times. 50 μL of 0.2% Triton X-100 was added to each well, and the cells were left to stand at room temperature for 15 min and washed with 0.1% PBST 3 times. 100 μL of 3% BSA (0.6 g BSA+20 mL PBS) was added to each well, and the mixture was blocked at 37° C. for 30 min. After the blocking was completed, the liquid was removed and a primary antibody (SUMO-2/3 (18H8) Rabbit mAb, 1:400 dilution) was prepared with 1% BSA. 30 μL of the diluted primary antibody was added to each well, and the mixture was incubated at 4° C. overnight. The cells were washed 3 times with 200 μL of 0.1% PBST. A FITC secondary antibody (Fluorescein (FITC)-conjugated Affinipure Goat Anti-Rabbit IgG (H+L), 1:300 dilution) was further prepared with 1% BSA, and 40 μL of the diluted secondary antibody was added to each well. The mixture was incubated at room temperature in the dark for 2 h, and then the cells were washed 4 times with 0.1% PBST. The fluorescence signal of the sample was detected and compared to the DMSO group, and the inhibition rate and IC50 were calculated.
As to `NS(=O)(=O)OC[C@H]1[C@H](F)[C@@H](Nc2ncncc2C(=O)c2cc3c(s2)CSC[C@@]32NCCc3ccc(Cl)nc32)C[C@@H]1O` [Compound 610], the IC50 is above 200 nM.
`NS(=O)(=O)OC[C@H]1[C@H](F)[C@@H](Nc2ncncc2C(=O)c2cc3c(s2)CCC[C@]32NCC3(CC3)c3ccc(Cl)cc32)C[C@@H]1O` [Compound 617] came in with an IC50 of at most 50 nM.
Same read-out and setting: under `NS(=O)(=O)OC[C@H]1[C@H](F)[C@@H](Nc2ncncc2C(=O)c2cc3c(s2)C(F)=CC32NCCc3ccc(Cl)cc32)C[C@@H]1O` (some centres unmarked) [Compound 321] stands at most 50 nM; under `NS(=O)(=O)OC[C@H]1[C@H](F)[C@@H](Nc2ncncc2C(=O)c2cc3c(s2)CCCC32NCCc3cc(Cl)ncc32)C[C@@H]1O` (some centres unmarked) [Compound 119], 50 to 200 nM; under `NS(=O)(=O)OC[C@H]1[C@H](F)[C@@H](Nc2ncncc2C(=O)c2cc3c(s2)CSC[C@]32NCCc3ccccc32)C[C@@H]1O` [Compound 296], 50 to 200 nM.
Still for that read-out and setting: then `NS(=O)(=O)OC[C@H]1[C@H](F)[C@@H](Nc2ncncc2C(=O)c2nc3c(s2)CCC[C@@]32NCCc3ccc(Cl)cc32)C[C@@H]1O` [Compound 586], with above 200 nM; and `NS(=O)(=O)OC[C@H]1[C@H](F)[C@@H](Nc2ncncc2C(=O)c2cc3c(s2)CCC32NCCc3cc(Cl)c(F)cc32)C[C@@H]1O` (some centres unmarked) [Compound 159], with 50 to 200 nM; and `NS(=O)(=O)OC[C@H]1[C@H](F)[C@@H](Nc2ncncc2C(=O)c2cc3c(s2)C(=O)C[C@@]32NCCc3ccc(Cl)cc32)C[C@@H]1O` [Compound 631], with above 200 nM.
The same measure, in the same setting: under `Cc1sc(C(=O)c2cncnc2N[C@H]2C[C@H](O)[C@@H](COS(N)(=O)=O)[C@@H]2F)cc1C1NCCc2ccncc21` (some centres unmarked) [Compound 253] stands 50 to 200 nM; under `N#Cc1ccc2c(c1)[C@@]1(C=Cc3sc(C(=O)c4cncnc4N[C@H]4C[C@H](O)[C@@H](COS(N)(=O)=O)[C@@H]4F)cc31)OCC2` [Compound 764], at most 50 nM; under `NS(=O)(=O)OC[C@H]1[C@H](F)[C@@H](Nc2ncncc2C(=O)c2cc3c(s2)C=C[C@@]32OCCc3ccccc32)C[C@@H]1O` [Compound 754], above 200 nM.
`NS(=O)(=O)OC[C@H]1[C@H](F)[C@@H](Nc2ncncc2C(=O)c2cc3c(s2)CCCC32NCCc3cc(F)c(Cl)c(F)c32)C[C@@H]1O` (some centres unmarked) [Compound 116] registered an IC50 of 50 to 200 nM.
`NS(=O)(=O)OC[C@H]1[C@H](F)[C@@H](Nc2ncncc2C(=O)c2cc3c(s2)CCCC32NC3(CC3)Cc3ccc(Cl)cc32)C[C@@H]1O` (some centres unmarked) [Compound 124]: the IC50 lay in the range of 50 to 200 nM.
`C#CCN1Cc2sc(C(=O)c3cncnc3N[C@H]3C[C@H](O)[C@@H](COS(N)(=O)=O)[C@@H]3F)cc2C2(C1)NCCc1ccc(Cl)cc12` (some centres unmarked) [Compound 657] displayed an IC50 of at most 50 nM.
On to `Cc1ccc2c(c1)C1(CCCc3sc(C(=O)c4cncnc4N[C@H]4C[C@H](O)[C@@H](COS(N)(=O)=O)[C@@H]4F)cc31)NCC2` (some centres unmarked) [Compound 106], for which the 50% inhibitory concentration (IC50) was 50 to 200 nM.
Compound `NS(=O)(=O)OC[C@H]1[C@H](F)[C@@H](Nc2ncncc2C(=O)c2cc3c(s2)CCCC32NCCc3ccc(C(F)(F)F)cc32)C[C@@H]1O` (some centres unmarked) [Compound 109] yielded a half-inhibitory concentration (IC50) of 50 to 200 nM.
For `NS(=O)(=O)OC[C@H]1[C@H](F)[C@@H](Nc2ncncc2C(=O)c2cc([C@H]3NCCc4ccc(Cl)cc43)c(C3CC3)s2)C[C@@H]1O` [Compound 986], the IC50 was above 200 nM.
On the same count and under the same terms, under `NS(=O)(=O)OC[C@H]1[C@H](F)[C@@H](Nc2ncncc2C(=O)c2cc3c(s2)OC[C@@]32NCCc3ccc(F)cc32)C[C@@H]1O` [Compound 143] stands above 200 nM.
With `COc1ccc2c(c1)[C@]1(CCCc3sc(C(=O)c4cncnc4N[C@H]4C[C@H](O)[C@@H](COS(N)(=O)=O)[C@@H]4F)cc31)NCC2` [Compound 643], the IC50 is above 200 nM.
In turn, `Cc1cc2c(cc1Cl)[C@@]1(CCc3sc(C(=O)c4cncnc4N[C@H]4C[C@H](O)[C@@H](COS(N)(=O)=O)[C@@H]4F)cc31)NCC2` [Compound 694] came in with an IC50 of at most 50 nM.
The same measure, in the same setting: under `NS(=O)(=O)OC[C@H]1[C@H](F)[C@@H](Nc2ncncc2C(=O)c2cc3c(s2)CSC[C@]32NCCc3cnc(Cl)cc32)C[C@@H]1O` [Compound 608] stands at most 50 nM.
With `NS(=O)(=O)OC[C@H]1[C@H](F)[C@@H](Nc2ncncc2C(=O)c2cc3c(s2)CCC[C@@]32NCCc3ccccc32)C[C@@H]1O` [Compound 86], the half-inhibitory concentration (IC50) was above 200 nM.
`NS(=O)(=O)OC[C@H]1[C@H](F)[C@@H](Nc2ncncc2C(=O)c2cc3c(s2)CCC[C@]32OCCc3ccc(Cl)cc32)C[C@@H]1O` [Compound 686] showed an IC50 of at most 50 nM.
As for `CC1Cc2ccc(Cl)cc2[C@@]2(C=Cc3sc(C(=O)c4cncnc4N[C@H]4C[C@H](O)[C@@H](COS(N)(=O)=O)[C@@H]4F)cc32)N1` (some centres unmarked) [Compound 1058], the IC50 lay within 50 to 200 nM.
On to `NS(=O)(=O)OC[C@H]1[C@H](F)[C@@H](Nc2ncncc2C(=O)c2cc3c(s2)CCC32NCCc3ccncc32)C[C@@H]1O` (some centres unmarked) [Compound 160], for which the IC50 fell in the range of 50 to 200 nM.
The same measure, in the same setting: under `Cc1sc(C(=O)c2cncnc2N[C@H]2C[C@H](O)[C@@H](COS(N)(=O)=O)[C@@H]2F)cc1C1OCCc2ccc(Cl)cc21` (some centres unmarked) [Compound 987] stands 50 to 200 nM; under `NS(=O)(=O)OC[C@H]1[C@H](F)[C@@H](Nc2ncncc2C(=O)c2cc3c(s2)CCCC32OCCc3ccccc32)C[C@@H]1O` (some centres unmarked) [Compound 708], above 200 nM.
`Cc1ccc2c(c1)C(c1cc(C(=O)c3cncnc3N[C@H]3C[C@H](O)[C@@H](COS(N)(=O)=O)[C@@H]3F)sc1C)NCC2` (some centres unmarked) [Compound 241] showed an IC50 of 50 to 200 nM.
`NS(=O)(=O)OC[C@H]1[C@H](F)[C@@H](Nc2ncncc2C(=O)c2cc3c(s2)CCC32OCCc3ccccc32)C[C@@H]1O` (some centres unmarked) [Compound 744] came in with an IC50 above 200 nM.
Same read-out and setting: under `NS(=O)(=O)OC[C@H]1[C@H](F)[C@@H](Nc2ncncc2C(=O)c2cc3c(s2)CCC[C@]32NC(=O)Cc3ccc(Cl)cc32)C[C@@H]1O` [Compound 629] stands above 200 nM; under `N#Cc1ccc2c(c1)C1(CCc3sc(C(=O)c4cncnc4N[C@H]4C[C@H](O)[C@@H](COS(N)(=O)=O)[C@@H]4F)cc31)NCC2` (some centres unmarked) [Compound 136], 50 to 200 nM.
Consider `CN1Cc2sc(C(=O)c3cncnc3N[C@H]3C[C@H](O)[C@@H](COS(N)(=O)=O)[C@@H]3F)cc2[C@@]2(C1)OCCc1ccccc12` [Compound 718], for which the half-inhibitory concentration (IC50) is above 200 nM.
Compound `NS(=O)(=O)OC[C@H]1[C@H](F)[C@@H](Nc2ncncc2C(=O)c2cc3c(s2)CCCC32NCCc3ccccc32)C[C@@H]1O` (some centres unmarked) [Compound 85] showed an IC50 of 50 to 200 nM.
`NS(=O)(=O)OC[C@H]1[C@H](F)[C@@H](Nc2ncncc2C(=O)c2cc3c(s2)CCC32NCCc3cc(Cl)c(Cl)cc32)C[C@@H]1O` (some centres unmarked) [Compound 154]: the IC50 lay in the range of 50 to 200 nM.
As for `N#Cc1cc2c(cc1Cl)C1(CCc3sc(C(=O)c4cncnc4N[C@H]4C[C@H](O)[C@@H](COS(N)(=O)=O)[C@@H]4F)cc31)NCC2` (some centres unmarked) [Compound 156], the IC50 fell in the range of 50 to 200 nM.
In turn, `NS(=O)(=O)OC[C@H]1[C@H](F)[C@@H](Nc2ncncc2C(=O)c2cc3c(s2)CCC[C@]32NCCc3cnc(Cl)cc32)C[C@@H]1O` [Compound 599] yielded an IC50 of at most 50 nM.

Staying with this test, now noted: numeric values, 6 h at 37° C.
The compound `NS(=O)(=O)OC[C@H]1[C@H](F)[C@@H](Nc2ncncc2C(=O)c2cc3c(s2)CCC[C@@]32NCCc3ccc(F)cc32)C[C@@H]1O` [Compound 92] registered a concentration for half-maximal inhibition (IC50) above 1000 nM.
In the case of `C=CCN1Cc2sc(C(=O)c3cncnc3N[C@H]3C[C@H](O)[C@@H](COS(N)(=O)=O)[C@@H]3F)cc2[C@]2(C1)NCCc1ccc(Cl)cc12` [Compound 656], the midpoint of inhibition, the IC50, lay at 25.1 nM. This lies in the double-digit nanomolar range.
